{"source": "patent US20260262643A1", "about": "“HERBICIDAL BENZOXAZINES” (FMC CORPORATION, priority 2022, published 2026)", "key": {"barnyardgrass [1]": {"tested_on": "barnyardgrass", "test": "Test C preemergence", "format": "in vivo, Echinochloa crusgalli", "procedure,_shortened": "(§1)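 Greenhouse herbicide screen, 10-day duration. Test chemicals in solvent/surfactant blend were sprayed onto soil at sowing (pre) or onto 2–10 cm seedlings at one to two leaves (post); injury scored visually against controls, 0 no effect to 100 complete control.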"}, "blackgrass [2]": {"tested_on": "blackgrass", "test": "Test C preemergence", "format": "in vivo, Alopecurus myosuroides", "procedure,_shortened": "as §1"}, "corn [3]": {"tested_on": "corn", "test": "Test C preemergence", "format": "in vivo, Zea mays", "procedure,_shortened": "as §1"}, "foxtail, giant [4]": {"tested_on": "foxtail, giant", "test": "Test C preemergence", "format": "in vivo, Setaria faberi", "text": "(§2) Seeds of plant species selected from barnyardgrass (Echinochloa crusgalli), blackgrass (Alopecurus myosuroides), corn (Zea mays), foxtail, giant (giant foxtail, Setaria faberi), green foxtail (Setaria viridis), goosegrass (Eleusine indica), kochia (Bassia scoparia), oat, wild (wild oat, Avena fatua), pigweed, palmer (palmer amaranth, palmer pigweed, Amaranthus palmeri), Pigweed, Redroot (redroot pigweed, Amaranthus retroflexus), ragweed (common ragweed, Ambrosia artemisiifolia), ryegrass, Italian ([…] ryegrass, Lolium multiflorum), soybean (Glycine max), and wheat (Triticum aestivum) were planted into a blend of loam soil and sand and treated preemergence with a directed soil spray using test chemicals formulated in a non-phytotoxic solvent mixture which included a surfactant. At the same time, plants selected from these crops and weed species and also galium (catchweed bedstraw, Galium aparine) and horseweed (Erigeron canadensis) were planted in pots containing the same blend of loam soil and sand and treated with postemergence applications of test chemicals formulated in the same manner. Plants ranged in height from 2 to 10 cm and were in the one- to two-leaf stage for the postemergence treatment. Treated plants and untreated controls were maintained in a greenhouse for 10 days, after which time all treated plants were compared to untreated controls and visually evaluated for injury. Plant response ratings, summarized in Table C, are based on a 0 to 100 scale where 0 is no effect and 100 is complete control. A dash (-) response means no test result."}, "kochia [5]": {"tested_on": "kochia", "test": "Test C preemergence", "format": "in vivo, Bassia scoparia", "procedure,_shortened": "as §1"}, "oat, wild [6]": {"tested_on": "oat, wild", "test": "Test C preemergence", "format": "in vivo, Avena fatua", "procedure,_shortened": "as §1"}, "pigweed, palmer [7]": {"tested_on": "pigweed, palmer", "test": "Test C preemergence", "format": "in vivo, Amaranthus palmeri", "procedure,_shortened": "as §1"}, "ragweed [8]": {"tested_on": "ragweed", "test": "Test C preemergence", "format": "in vivo, Ambrosia artemisiifolia", "procedure,_shortened": "as §1"}, "ryegrass, Italian [9]": {"tested_on": "ryegrass, Italian", "test": "Test C preemergence", "format": "in vivo, Lolium multiflorum", "procedure,_shortened": "as §1"}, "soybean [10]": {"tested_on": "soybean", "test": "Test C preemergence", "format": "in vivo, Glycine max", "procedure,_shortened": "as §1"}, "wheat [11]": {"tested_on": "wheat", "test": "Test C preemergence", "format": "in vivo, Triticum aestivum", "procedure,_shortened": "as §1"}, "barnyardgrass [12]": {"tested_on": "barnyardgrass", "test": "Test C postemergence", "format": "in vivo, Echinochloa crusgalli", "conditions": "10 days, 0 to 100 scale (0 no effect, 100 complete control)", "procedure,_shortened": "as §1"}, "blackgrass [13]": {"tested_on": "blackgrass", "test": "Test C postemergence", "format": "in vivo, Alopecurus myosuroides", "conditions": "10 days, 0 to 100 scale (0 no effect, 100 complete control)", "procedure,_shortened": "as §1"}, "corn [14]": {"tested_on": "corn", "test": "Test C postemergence", "format": "in vivo, Zea mays", "conditions": "10 days, 0 to 100 scale (0 no effect, 100 complete control)", "procedure,_shortened": "as §1"}, "foxtail, giant [15]": {"tested_on": "foxtail, giant", "test": "Test C postemergence", "format": "in vivo, Setaria faberi", "conditions": "10 days, 0 to 100 scale (0 no effect, 100 complete control)", "text": "as §2"}, "kochia [16]": {"tested_on": "kochia", "test": "Test C postemergence", "format": "in vivo, Bassia scoparia", "conditions": "10 days, 0 to 100 scale (0 no effect, 100 complete control)", "procedure,_shortened": "as §1"}, "oat, wild [17]": {"tested_on": "oat, wild", "test": "Test C postemergence", "format": "in vivo, Avena fatua", "conditions": "10 days, 0 to 100 scale (0 no effect, 100 complete control)", "procedure,_shortened": "as §1"}, "pigweed, palmer [18]": {"tested_on": "pigweed, palmer", "test": "Test C postemergence", "format": "in vivo, Amaranthus palmeri", "conditions": "10 days, 0 to 100 scale (0 no effect, 100 complete control)", "procedure,_shortened": "as §1"}, "ragweed [19]": {"tested_on": "ragweed", "test": "Test C postemergence", "format": "in vivo, Ambrosia artemisiifolia", "conditions": "10 days, 0 to 100 scale (0 no effect, 100 complete control)", "procedure,_shortened": "as §1"}, "ryegrass, Italian [20]": {"tested_on": "ryegrass, Italian", "test": "Test C postemergence", "format": "in vivo, Lolium multiflorum", "conditions": "10 days, 0 to 100 scale (0 no effect, 100 complete control)", "procedure,_shortened": "as §1"}, "soybean [21]": {"tested_on": "soybean", "test": "Test C postemergence", "format": "in vivo, Glycine max", "conditions": "10 days, 0 to 100 scale (0 no effect, 100 complete control)", "procedure,_shortened": "as §1"}, "wheat [22]": {"tested_on": "wheat", "test": "Test C postemergence", "format": "in vivo, Triticum aestivum", "conditions": "10 days, 0 to 100 scale (0 no effect, 100 complete control)", "procedure,_shortened": "as §1"}, "galium": {"tested_on": "galium", "test": "Test C postemergence", "format": "in vivo, Galium aparine", "conditions": "10 days, 0 to 100 scale (0 no effect, 100 complete control)", "procedure,_shortened": "as §1"}, "horseweed": {"tested_on": "horseweed", "test": "Test C postemergence", "format": "in vivo, Erigeron canadensis", "conditions": "10 days, 0 to 100 scale (0 no effect, 100 complete control)", "procedure,_shortened": "as §1"}, "barnyardgrass [23]": {"tested_on": "barnyardgrass", "test": "Test D flooded paddy test", "format": "in vivo, Echinochloa crus-galli", "conditions": "250 g ai/ha, applied to paddy water, visual rating after 13 to 14 days, scale 0 to 100 (0 no effect, 100 complete control)", "procedure,_shortened": "(§3)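 2-leaf plants; flood 3 cm above soil; compound dosed into paddy water; greenhouse 13–14 d; visual rating vs controls, 0–100 (100 = complete control); dash = not tested.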"}, "ducksalad": {"tested_on": "ducksalad", "test": "Test D flooded paddy test", "format": "in vivo, Heteranthera limosa", "conditions": "250 g ai/ha, applied to paddy water, visual rating after 13 to 14 days, scale 0 to 100 (0 no effect, 100 complete control)", "procedure,_shortened": "as §3"}, "rice": {"tested_on": "rice", "test": "Test D flooded paddy test", "format": "in vivo, Oryza sativa", "conditions": "250 g ai/ha, applied to paddy water, visual rating after 13 to 14 days, scale 0 to 100 (0 no effect, 100 complete control)", "procedure,_shortened": "as §3"}, "sedge, umbrella": {"tested_on": "sedge, umbrella", "test": "Test D flooded paddy test", "format": "in vivo, Cyperus difformis", "conditions": "250 g ai/ha, applied to paddy water, visual rating after 13 to 14 days, scale 0 to 100 (0 no effect, 100 complete control)", "procedure,_shortened": "as §3"}, "[24]": {"conditions": "500 g ai/ha, preemergence, 0 to 100 scale (0 no effect, 100 complete control)"}, "[25]": {"conditions": "Preemergence, 125 g ai/ha, 0 to 100 scale, 0 no effect, 100 complete control"}}, "data": [{"smiles": "CCc1ncn(-c2cc(C(=O)N3CC(C(F)(F)F)Oc4c(Cl)cccc43)ccn2)n1", "note": "(racemic) [Compound 334]", "values": [{"measurement": "Barnyardgrass plant response rating", "setting": "barnyardgrass [1]; [24]", "result": 100}, {"measurement": "Plant response rating, Barnyardgrass", "setting": "barnyardgrass [1]; [25]", "result": 60}, {"measurement": "Blackgrass plant response rating", "setting": "blackgrass [2]; [24]", "result": 90}, {"measurement": "Plant response rating, Blackgrass", "setting": "blackgrass [2]; [25]", "result": 80}, {"measurement": "Corn plant response rating", "setting": "corn [3]; [24]", "result": 50}, {"measurement": "Plant response rating, Corn", "setting": "corn [3]; [25]", "result": 0}, {"measurement": "Foxtail, Giant plant response rating", "setting": "foxtail, giant [4]; [24]", "result": 100}, {"measurement": "Plant response rating, Foxtail, Giant", "setting": "foxtail, giant [4]; [25]", "result": 90}, {"measurement": "Kochia plant response rating", "setting": "kochia [5]; [24]", "result": 80}, {"measurement": "Plant response rating, Kochia", "setting": "kochia [5]; [25]", "result": 40}, {"measurement": "Oat, Wild plant response rating", "setting": "oat, wild [6]; [24]", "result": 30}, {"measurement": "Plant response rating, Oat, Wild", "setting": "oat, wild [6]; [25]", "result": 0}, {"measurement": "Pigweed, Palmer plant response rating", "setting": "pigweed, palmer [7]; [24]", "result": 100}, {"measurement": "Plant response rating, Pigweed, Palmer", "setting": "pigweed, palmer [7]; [25]", "result": 90}, {"measurement": "Ragweed plant response rating", "setting": "ragweed [8]; [24]", "result": 30}, {"measurement": "Plant response rating, Ragweed", "setting": "ragweed [8]; [25]", "result": 0}, {"measurement": "Ryegrass, Italian plant response rating", "setting": "ryegrass, Italian [9]; [24]", "result": 90}, {"measurement": "Plant response rating, Ryegrass, Italian", "setting": "ryegrass, Italian [9]; [25]", "result": 70}, {"measurement": "Soybean plant response rating", "setting": "soybean [10]; [24]", "result": 60}, {"measurement": "Plant response rating, Soybean", "setting": "soybean [10]; [25]", "result": 0}, {"measurement": "Wheat plant response rating", "setting": "wheat [11]; [24]", "result": 20}, {"measurement": "Plant response rating, Wheat", "setting": "wheat [11]; [25]", "result": 0}, {"measurement": "Plant response rating, Barnyardgrass", "setting": "barnyardgrass [12]; 500 g ai/ha, postemergence", "result": 90}, {"measurement": "Plant response rating, Barnyardgrass", "setting": "barnyardgrass [12]; Postemergence, 125 g ai/ha", "result": 20}, {"measurement": "Plant response rating, Blackgrass", "setting": "blackgrass [13]; 500 g ai/ha, postemergence", "result": 80}, {"measurement": "Plant response rating, Blackgrass", "setting": "blackgrass [13]; Postemergence, 125 g ai/ha", "result": 40}, {"measurement": "Plant response rating, Corn", "setting": "corn [14]; 500 g ai/ha, postemergence", "result": 90}, {"measurement": "Plant response rating, Corn", "setting": "corn [14]; Postemergence, 125 g ai/ha", "result": 40}, {"measurement": "Plant response rating, Foxtail, Giant", "setting": "foxtail, giant [15]; 500 g ai/ha, postemergence", "result": 90}, {"measurement": "Plant response rating, Foxtail, Giant", "setting": "foxtail, giant [15]; Postemergence, 125 g ai/ha", "result": 70}, {"measurement": "Plant response rating, Kochia", "setting": "kochia [16]; 500 g ai/ha, postemergence", "result": 80}, {"measurement": "Plant response rating, Kochia", "setting": "kochia [16]; Postemergence, 125 g ai/ha", "result": 80}, {"measurement": "Plant response rating, Oat, Wild", "setting": "oat, wild [17]; 500 g ai/ha, postemergence", "result": 40}, {"measurement": "Plant response rating, Oat, Wild", "setting": "oat, wild [17]; Postemergence, 125 g ai/ha", "result": 10}, {"measurement": "Plant response rating, Pigweed, Palmer", "setting": "pigweed, palmer [18]; 500 g ai/ha, postemergence", "result": 50}, {"measurement": "Plant response rating, Pigweed, Palmer", "setting": "pigweed, palmer [18]; Postemergence, 125 g ai/ha", "result": 30}, {"measurement": "Plant response rating, Ragweed", "setting": "ragweed [19]; 500 g ai/ha, postemergence", "result": 60}, {"measurement": "Plant response rating, Ragweed", "setting": "ragweed [19]; Postemergence, 125 g ai/ha", "result": 0}, {"measurement": "Plant response rating, Ryegrass, Italian", "setting": "ryegrass, Italian [20]; 500 g ai/ha, postemergence", "result": 70}, {"measurement": "Plant response rating, Ryegrass, Italian", "setting": "ryegrass, Italian [20]; Postemergence, 125 g ai/ha", "result": 50}, {"measurement": "Plant response rating, Soybean", "setting": "soybean [21]; 500 g ai/ha, postemergence", "result": 100}, {"measurement": "Plant response rating, Soybean", "setting": "soybean [21]; Postemergence, 125 g ai/ha", "result": 100}, {"measurement": "Plant response rating, Wheat", "setting": "wheat [22]; 500 g ai/ha, postemergence", "result": 50}, {"measurement": "Plant response rating, Wheat", "setting": "wheat [22]; Postemergence, 125 g ai/ha", "result": 20}, {"measurement": "Plant response rating, Galium", "setting": "galium; 500 g ai/ha, postemergence", "result": 100}, {"measurement": "Plant response rating, Galium", "setting": "galium; Postemergence, 125 g ai/ha", "result": 100}, {"measurement": "Plant response rating, Horseweed", "setting": "horseweed; 500 g ai/ha, postemergence", "result": 40}, {"measurement": "Plant response rating, Horseweed", "setting": "horseweed; Postemergence, 125 g ai/ha", "result": 0}, {"measurement": "Plant response rating, Barnyardgrass (Flood)", "setting": "barnyardgrass [23]", "result": 10}, {"measurement": "Plant response rating, Ducksalad (Flood)", "setting": "ducksalad", "result": 30}, {"measurement": "Plant response rating, Rice (Flood)", "setting": "rice", "result": 0}, {"measurement": "Plant response rating, Sedge, Umbrella (Flood)", "setting": "sedge, umbrella", "result": 70}]}]}
